Results as given in PubChem BioAssay AID2060500 (Molecular Pharmacology Branch, DTP, NCI, 2025).

Test system: 596521-263-R-J1-PDC complex spheroids, viability % of control
Test: Anticancer human tumor 596521-263-R-J1-PDC patient-derived soft tissue sarcoma cell line growth inhibition [GQUAD]
Conditions: for IC50: curve of first compound; for viability, T/C: stronger effect = lower value
Outline: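 Tumor cells were grown as complex spheroids with HUVEC endothelial cells and mesenchymal stem cells as stroma. G-quadruplex stabilizers were combined with targeted agents over half-log dilutions from near the clinical Cmax, or from 10 microM.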

[1] = second compound 0.0316 µM, first compound 0.000999 µM
[2] = second compound 0.0316 µM, first compound 0.00316 µM
[3] = second compound 0.0316 µM, first compound 0.00999 µM
[4] = second compound 0.0316 µM, first compound 0.0316 µM
[5] = second compound 0.0316 µM, first compound 0.0999 µM
[6] = second compound 0.0316 µM, first compound 0.316 µM
[7] = second compound 0.1 µM, first compound 0.000999 µM
[8] = second compound 0.1 µM, first compound 0.00316 µM
[9] = second compound 0.1 µM, first compound 0.00999 µM
[10] = second compound 0.1 µM, first compound 0.0316 µM
[11] = second compound 0.1 µM, first compound 0.0999 µM
[12] = second compound 0.1 µM, first compound 0.316 µM
[13] = second compound 0.316 µM, first compound 0.000999 µM
[14] = second compound 0.316 µM, first compound 0.00316 µM
[15] = second compound 0.316 µM, first compound 0.00999 µM
[16] = second compound 0.316 µM, first compound 0.0316 µM
[17] = second compound 0.316 µM, first compound 0.0999 µM
[18] = second compound 0.316 µM, first compound 0.316 µM
[19] = second compound 1 µM, first compound 0.000999 µM
[20] = second compound 1 µM, first compound 0.00316 µM
[21] = second compound 1 µM, first compound 0.00999 µM
[22] = second compound 1 µM, first compound 0.0316 µM
[23] = second compound 1 µM, first compound 0.0999 µM
[24] = second compound 1 µM, first compound 0.316 µM
[25] = second compound 3.16 µM, first compound 0.000999 µM
[26] = second compound 3.16 µM, first compound 0.00316 µM
[27] = second compound 3.16 µM, first compound 0.00999 µM
[28] = second compound 3.16 µM, first compound 0.0316 µM
[29] = second compound 3.16 µM, first compound 0.0999 µM
[30] = second compound 3.16 µM, first compound 0.316 µM
[31] = second compound 10 µM, first compound 0.000999 µM
[32] = second compound 10 µM, first compound 0.00316 µM
[33] = second compound 10 µM, first compound 0.00999 µM
[34] = second compound 10 µM, first compound 0.0316 µM
[35] = second compound 10 µM, first compound 0.0999 µM
[36] = second compound 10 µM, first compound 0.316 µM
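Further: spheroids exposed to drugs for 7 days before viability reading.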
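Wherever viability, T/C is given: 100% = DMSO vehicle control viability.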

Cc1[nH]c2ccccc2c1CCNCc1ccc(/C=C/C(=O)NO)cc1 + CN(C)c1ccc(Nc2c3ccc(NC(=O)CCN4CCCC4)cc3nc3cc(NC(=O)CCN4CCCC4)ccc23)cc1
IC50 (second compound 0.0316 µM): 46.6 nM | IC50 (second compound 0.1 µM): 42.4 nM | IC50 (second compound 0.316 µM): 31.8 nM | IC50 (second compound 1 µM): 36.8 nM | IC50 (second compound 3.16 µM): 24.9 nM | IC50 (second compound 10 µM): 13.5 nM | viability, T/C [1]: 102% | viability, T/C [2]: 89.2% | viability, T/C [3]: 79.8% | viability, T/C [4]: 58.1% | viability, T/C [5]: 32.9% | viability, T/C [6]: 1.76% | viability, T/C [7]: 94.7% | viability, T/C [8]: 94.9% | viability, T/C [9]: 78.1% | viability, T/C [10]: 58.4% | viability, T/C [11]: 27.4% | viability, T/C [12]: 2.91% | viability, T/C [13]: 102% | viability, T/C [14]: 81.3% | viability, T/C [15]: 77% | viability, T/C [16]: 50.4% | viability, T/C [17]: 22.8% | viability, T/C [18]: 1.67% | viability, T/C [19]: 90.6% | viability, T/C [20]: 88.3% | viability, T/C [21]: 75.6% | viability, T/C [22]: 54.8% | viability, T/C [23]: 23.3% | viability, T/C [24]: 1.36% | viability, T/C [25]: 78.6% | viability, T/C [26]: 82.4% | viability, T/C [27]: 64.7% | viability, T/C [28]: 46.2% | viability, T/C [29]: 18.4% | viability, T/C [30]: 1.06% | viability, T/C [31]: 62.2% | viability, T/C [32]: 53.7% | viability, T/C [33]: 57.4% | viability, T/C [34]: 36.4% | viability, T/C [35]: 13.3% | viability, T/C [36]: 0.5%

CCCS(=O)(=O)Nc1ccc(F)c(C(=O)c2c[nH]c3ncc(-c4ccc(Cl)cc4)cc23)c1F + Cc1[nH]c2ccc(F)cc2c1-c1nc2c3cccnc3c3ncccc3c2[nH]1
IC50 (second compound 0.0316 µM): 504 nM | IC50 (second compound 0.1 µM): 358 nM | IC50 (second compound 0.316 µM): 836 nM | IC50 (second compound 1 µM): 498 nM | IC50 (second compound 3.16 µM): 376 nM | IC50 (second compound 10 µM): 419 nM | viability, T/C [4]: 107% | viability, T/C (second compound 0.0316 µM, first compound 0.1 µM): 73.5% | viability, T/C [6]: 56.2% | viability, T/C (second compound 0.0316 µM, first compound 1 µM): 41.7% | viability, T/C (second compound 0.0316 µM, first compound 3.16 µM): 40.5% | viability, T/C (second compound 0.0316 µM, first compound 10 µM): 40.2% | viability, T/C [10]: 89.3% | viability, T/C (second compound 0.1 µM, first compound 0.1 µM): 74.2% | viability, T/C [12]: 51.8% | viability, T/C (second compound 0.1 µM, first compound 1 µM): 36.8% | viability, T/C (second compound 0.1 µM, first compound 3.16 µM): 42.8% | viability, T/C (second compound 0.1 µM, first compound 10 µM): 31.1% | viability, T/C [16]: 112% | viability, T/C (second compound 0.316 µM, first compound 0.1 µM): 81.4% | viability, T/C [18]: 61.1% | viability, T/C (second compound 0.316 µM, first compound 1 µM): 44.4% | viability, T/C (second compound 0.316 µM, first compound 3.16 µM): 46.3% | viability, T/C (second compound 0.316 µM, first compound 10 µM): 33.1% | viability, T/C [22]: 84.4% | viability, T/C (second compound 1 µM, first compound 0.1 µM): 81.6% | viability, T/C [24]: 57.2% | viability, T/C (second compound 1 µM, first compound 1 µM): 38.4% | viability, T/C (second compound 1 µM, first compound 3.16 µM): 44.4% | viability, T/C (second compound 1 µM, first compound 10 µM): 29.7% | viability, T/C [28]: 92.6% | viability, T/C (second compound 3.16 µM, first compound 0.1 µM): 70.4% | viability, T/C [30]: 53.2% | viability, T/C (second compound 3.16 µM, first compound 1 µM): 37.6% | viability, T/C (second compound 3.16 µM, first compound 3.16 µM): 37.9% | viability, T/C (second compound 3.16 µM, first compound 10 µM): 32% | viability, T/C [34]: 74.6% | viability, T/C (second compound 10 µM, first compound 0.1 µM): 58.5% | viability, T/C [36]: 58% | viability, T/C (second compound 10 µM, first compound 1 µM): 38.1% | viability, T/C (second compound 10 µM, first compound 3.16 µM): 39.3% | viability, T/C (second compound 10 µM, first compound 10 µM): 30.4%

CC[C@@]1(O)C(=O)OCc2c1cc1n(c2=O)Cc2cc3c(CN(C)C)c(O)ccc3nc2-1 + CN(C)c1ccc(Nc2c3ccc(NC(=O)CCN4CCCC4)cc3nc3cc(NC(=O)CCN4CCCC4)ccc23)cc1
IC50 (second compound 0.0316 µM): > 316 nM | IC50 (second compound 0.1 µM): 161 nM | IC50 (second compound 0.316 µM): > 316 nM | IC50 (second compound 1 µM): > 316 nM | IC50 (second compound 3.16 µM): > 316 nM | IC50 (second compound 10 µM): 76.9 nM | viability, T/C [1]: 99.7% | viability, T/C [2]: 108% | viability, T/C [3]: 91.9% | viability, T/C [4]: 62.4% | viability, T/C [5]: 63.8% | viability, T/C [6]: 53.2% | viability, T/C [7]: 114% | viability, T/C [8]: 105% | viability, T/C [9]: 103% | viability, T/C [10]: 65.3% | viability, T/C [11]: 54.3% | viability, T/C [12]: 46.2% | viability, T/C [13]: 94.5% | viability, T/C [14]: 97.9% | viability, T/C [15]: 83.3% | viability, T/C [16]: 74.1% | viability, T/C [17]: 59.4% | viability, T/C [18]: 53.6% | viability, T/C [19]: 92% | viability, T/C [20]: 92.9% | viability, T/C [21]: 86.1% | viability, T/C [22]: 73.1% | viability, T/C [23]: 57.3% | viability, T/C [24]: 54.2% | viability, T/C [25]: 95.8% | viability, T/C [26]: 88.8% | viability, T/C [27]: 84.1% | viability, T/C [28]: 61.1% | viability, T/C [29]: 59.1% | viability, T/C [30]: 52.5% | viability, T/C [31]: 58.5% | viability, T/C [32]: 70.6% | viability, T/C [33]: 54.6% | viability, T/C [34]: 50.1% | viability, T/C [35]: 52% | viability, T/C [36]: 41.4%
